Values of other authors in patent publication US20040235808A1, “Androstanes as androgen receptor modulators” (priority 2001, published 2004).

Key:
[1] = median of 22 months of treatment
[2] = after 7 years of treatment

| Compound | reduction in nonvertebral fractures [1] [%] | reduction in spine fractures [1] [%] | increase in spinal BMD [2] [%] |
| --- | --- | --- | --- |
| hPTH(1-34): human parathyroid hormone 1-34 fragment (SVSEIQLMHNLGKHLNSMERVEWLRKKLQDVHNF; Parathyroid hormone; UniProt P01270 32-65, looked up, fragment) | 54 | ≥ 65 | – |
| NCCCC(O)(P(=O)([O-])O)P(=O)(O)O.O.O.O.[Na+] [alendronate, (4-amino-1-hydroxybutylidene)-bis-phosphonate monosodium trihydrate] | – | – | 11 |
